Measurements: patent publication US10184115B2, “Mutated cellobiose dehydrogenase with increased substrate specificity” (DIRECTSENS GMBH, priority 2012, dated 2019)

Target: T1, Myriococcum thermophilum cellobiose dehydrogenase (CDH, SEQ ID NO: 1) variant W316R (Thermothelomyces myriococcoides, UniProt A9XK88, W316R)
T1 sequence (A9XK88 22-828 W316R): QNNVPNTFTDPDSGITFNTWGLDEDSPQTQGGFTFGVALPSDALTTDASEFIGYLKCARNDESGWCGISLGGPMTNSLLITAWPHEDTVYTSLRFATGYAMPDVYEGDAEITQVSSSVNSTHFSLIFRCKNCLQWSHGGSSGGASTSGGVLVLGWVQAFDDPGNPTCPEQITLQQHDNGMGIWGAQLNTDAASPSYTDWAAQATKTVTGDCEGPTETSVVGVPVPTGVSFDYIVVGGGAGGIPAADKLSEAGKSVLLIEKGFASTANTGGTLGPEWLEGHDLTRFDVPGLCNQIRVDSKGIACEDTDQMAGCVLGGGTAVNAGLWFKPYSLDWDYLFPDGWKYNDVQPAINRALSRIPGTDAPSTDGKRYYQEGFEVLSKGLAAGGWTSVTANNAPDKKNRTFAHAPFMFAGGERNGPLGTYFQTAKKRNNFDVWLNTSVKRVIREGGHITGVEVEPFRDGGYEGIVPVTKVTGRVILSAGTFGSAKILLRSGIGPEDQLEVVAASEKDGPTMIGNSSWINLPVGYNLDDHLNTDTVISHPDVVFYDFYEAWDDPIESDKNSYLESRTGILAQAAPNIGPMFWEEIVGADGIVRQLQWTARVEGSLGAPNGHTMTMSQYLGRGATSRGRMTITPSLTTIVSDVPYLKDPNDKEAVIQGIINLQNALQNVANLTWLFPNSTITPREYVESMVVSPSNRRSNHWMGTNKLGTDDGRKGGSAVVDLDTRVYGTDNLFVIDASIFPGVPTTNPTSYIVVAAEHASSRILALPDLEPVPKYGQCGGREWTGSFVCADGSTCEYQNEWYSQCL
Assay: Steady-state kinetics, DCIP assay: M. thermophilum CDH W316R
Assay type: biochemical
Conditions: apparent, pH 4.5, 30° C.
Experimental: Enzyme activity was assayed at 30° C. using either the DCIP (Karapetyan et al., 2005 Journal of Biotechnology 121: 34-48) or cytochrome c (Canevascini et al., 1991, European Journal of Biochemistry 198: 43-52) as electron acceptor. […] Stock solutions of carbohydrates used for kinetic measurements were prepared in the respective buffer and allowed to stand overnight for mutarotation, while stock solutions of electron acceptors were prepared in water and immediately used. The reaction stoichiometry is 1 for the two-electron acceptor DCIP (1 mole of DCIP reduced per mole of carbohydrate oxidized), but 2 for the one-electron acceptor cytochrome c. Kinetic constants were calculated by fitting the observed data to the Henri-Michaelis-Menten equation or to the adapted model for substrate inhibition using nonlinear least-squares regression and the program SigmaPlot (Systat Software, San Jose, Calif., USA). […]
Recombinant wild-type CDH as well as variants were produced in 1 L baffled flasks. […] Increase in activity was monitored using the DCIP and the cytochrome c enzyme assays. […]
The sample was loaded on a 20 mL PHE Sepharose FF column (HR26/20) equilibrated with 50 mM Na-acetate buffer pH 5.5 containing 20% ammonium sulfate. […] Fractions were tested for CDH activity and pooled according to the highest Reinheitszahl (RZ, calculated from the absorbance ratio 420 nm/280 nm). […]

Structure (SMILES): OC[C@H]1O[C@H](O[C@H]2[C@H](O)[C@@H](O)C(O)O[C@@H]2CO)[C@H](O)[C@@H](O)[C@@H]1O (some centres unmarked) [Maltose, maltose]
- kcat/KM: 0.09 M⁻¹ s⁻¹
- kcat (~ values only estimated by non linear regression): 0.12 s⁻¹
